# In patent US9359367B2, “Tetrahydroquinazolinone derivatives as PARP inhibitors” (Lupin Limited, priority 2012, dated 2016):
# Target: T1, PARP1 (Homo sapiens, UniProt P09874)
# T1 construct: purchased BPS Bioscience
# Test: PARP1 Biochemical Assay (BPS Bioscience kit, chemiluminescence)
# Conditions: histone-coated plate, biotinilated NAD+, 25° C. for 60 min, luminescence, read-out: PARP 1 inhibition IC50
# Procedure: The assay was performed using BPS Bioscience kit. The 96-well strip plate was coated with 50 μl of histone mixture and incubated at 4° C. overnight. Next day the wells were blocked by adding 100 μl of blocking buffer. The plate was washed and 25 μl of appropriate concentration of PARP1 (25-75 ng/well) was added in all the Test and Positive control wells. In Negative control wells enzyme was replaced with 25 μl of water. To it 5 μl each of 10×PARP assay buffer and activated DNA was added in all the wells (Test, Positive and Negative control wells). 10× concentration of test compounds were prepared and 5 μl test compounds were added respective wells. Reaction volume was made up to 45 μl by adding water to all the wells. Finally, 5 μl of 10×PARP assay mixture containing biotinilated NAD^+ was added in each well and the plate was incubated at ambient temperature (25° C.) for 60 min. After washing the plate 50 μl of Streptavidin-HRP was added in each well and incubated the plate at RT for 30 min. The plate was washed and the luminescence was read in PHERAStar plate reader after adding 100 μl of chemiluminescent substrate.
# PARP inhibition was calculated using the following formula: % PARP inhibition=100−[(RLU test compound treated sample−RLU negative control)/(RLU Positive control−RLU negative control)×100]
# IC50 values were calculated by plotting % inhibition against the respective concentrations of test compounds using GraphPad Prism 5.
# T1 sequence (P09874 whole entry): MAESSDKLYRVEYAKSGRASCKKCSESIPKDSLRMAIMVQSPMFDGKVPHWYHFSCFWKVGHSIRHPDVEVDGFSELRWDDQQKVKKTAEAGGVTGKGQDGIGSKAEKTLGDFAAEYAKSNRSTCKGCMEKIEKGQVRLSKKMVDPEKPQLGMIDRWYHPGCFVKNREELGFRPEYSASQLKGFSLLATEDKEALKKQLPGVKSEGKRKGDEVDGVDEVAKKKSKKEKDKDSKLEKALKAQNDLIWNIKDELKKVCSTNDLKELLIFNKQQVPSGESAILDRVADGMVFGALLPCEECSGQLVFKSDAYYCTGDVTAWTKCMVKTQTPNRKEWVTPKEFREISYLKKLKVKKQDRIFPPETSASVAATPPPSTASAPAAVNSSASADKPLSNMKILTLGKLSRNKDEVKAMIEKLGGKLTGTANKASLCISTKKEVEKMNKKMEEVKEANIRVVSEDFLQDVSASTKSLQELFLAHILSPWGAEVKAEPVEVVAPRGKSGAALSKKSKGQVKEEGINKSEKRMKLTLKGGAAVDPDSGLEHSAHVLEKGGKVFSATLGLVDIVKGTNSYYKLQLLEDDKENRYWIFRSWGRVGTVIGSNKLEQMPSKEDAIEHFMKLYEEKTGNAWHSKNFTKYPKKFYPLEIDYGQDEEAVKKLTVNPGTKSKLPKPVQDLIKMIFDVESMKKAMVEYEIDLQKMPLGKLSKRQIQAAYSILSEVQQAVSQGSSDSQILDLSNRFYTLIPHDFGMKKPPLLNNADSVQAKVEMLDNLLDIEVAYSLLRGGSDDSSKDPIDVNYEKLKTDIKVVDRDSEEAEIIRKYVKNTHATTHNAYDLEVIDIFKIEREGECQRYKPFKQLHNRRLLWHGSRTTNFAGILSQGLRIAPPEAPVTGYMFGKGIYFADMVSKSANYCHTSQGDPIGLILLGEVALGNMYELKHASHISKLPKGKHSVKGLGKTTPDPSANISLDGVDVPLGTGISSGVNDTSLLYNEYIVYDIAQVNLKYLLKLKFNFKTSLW
row,SMILES,IC50 [nM]
1,"O=c1[nH]c(CCCN2CCN(c3ccccc3)CC2)nc2c1CC1CC1C2 (centres unmarked) [Compound 25, 2-(3-(4-phenylpiperazin-1-yl)propyl)-5a,6,6a,7-tetrahydro-3H-cyclopropa[g]quinazolin-4(5H)-one]",501 to 5000
2,"CC1(C)CN(c2ccc(F)cc2)CCN1[C@H]1C=C(c2nc3c(c(=O)[nH]2)CC2(CC3)CC2)CC1 [Compound 67, (R)-2′-(3-(4-(4-fluorophenyl)-2,2-dimethylpiperazin-1-yl)cyclopent-1-en-1-yl)-7′,8′-dihydro-3′H-spiro[cyclopropane-1,6′-quinazolin]-4′(5′H)-one]",5000 to 500000
3,"CN(C)C(=O)c1ccc(N2CCN([C@H]3C=C(c4nc5c(c(=O)[nH]4)CC4(CC5)CC4)CC3)CC2)cc1 [Compound 69, (R)—N,N-dimethyl-4-(4-(3-(4′-oxo-4′,5′,7′,8′-tetrahydro-3′H-spiro[cyclopropane-1,6′-quinazolin]-2′-yl)cyclopent-2-en-1-yl)piperazin-1-yl)benzamide]",5000 to 500000
4,"O=c1[nH]c(CCCN2CCN(c3ccc(Cl)c(Cl)c3)CC2)nc2c1CC1(CC2)CC1 [Compound 10, 2′-(3-(4-(3,4-dichlorophenyl)piperazin-1-yl)propyl)-7′,8′-dihydro-3′H-spiro[cyclopropane-1,6′-quinazolin]-4′(5′H)-one]",501 to 5000
5,"CNC(=O)c1csc(N2CCN([C@H]3C=C(c4nc5c(c(=O)[nH]4)CC4(CC5)CC4)CC3)CC2)n1 [Compound 105, (R)—N-methyl-2-(4-(3-(4′-oxo-4′,5′,7′,8′-tetrahydro-3′H-spiro[cyclopropane-1,6′-quinazolin]-2′-yl)cyclopent-2-en-1-yl)piperazin-1-yl)thiazole-4-carboxamide]",501 to 5000
6,"CCc1cnc(N2CCN([C@H]3C=C(c4nc5c(c(=O)[nH]4)CC4(CC5)CC4)CC3)CC2)nc1 [Compound 135, (R)-2′-(3-(4-(5-ethylpyrimidin-2-yl)piperazin-1-yl)cyclopent-1-en-1-yl)-7′,8′-dihydro-3′H-spiro[cyclopropane-1,6′-quinazolin]-4′(5′H)-one]",5000 to 500000
7,"CC(C)(/C=C/c1nc2c(c(=O)[nH]1)CC1(CC2)CC1)N1CCN(c2ccc(F)cc2)CC1 [Compound 31, (E)-2′-(3-(4-(4-fluorophenyl)piperazin-1-yl)-3-methylbut-1-en-1-yl)-7′,8′-dihydro-3′H-spiro[cyclopropane-1,6′-quinazolin]-4′(5′H)-one]",5000 to 500000
8,"O=c1[nH]c([C@@H]2CC[C@@H](N3CCN(c4cccc(F)c4)CC3)C2)nc2c1CC1(CC2)CC1 [Compound 156, 2′-((1R,3R)-3-(4-(3-fluorophenyl)piperazin-1-yl)cyclopentyl)-7′,8′-dihydro-3′H-spiro[cyclopropane-1,6′-quinazolin]-4′(5′H)-one]",5000 to 500000
9,"Cc1cc(N2CCN([C@H]3C=C(c4nc5c(c(=O)[nH]4)CC4(CC5)CC4)CC3)CC2)ccc1F [Compound 80, (R)-2′-(3-(4-(4-fluoro-3-methylphenyl)piperazin-1-yl)cyclopent-1-en-1-yl)-7′,8′-dihydro-3′H-spiro[cyclopropane-1,6′-quinazolin]-4′(5′H)-one]",1 to 500
10,"O=c1[nH]c(C2=C[C@H](N3CCN(c4ccc(F)cc4)CC3)CC2)nc2c1CC1(CC2)CC1 [Compound 42, (R)-2′-(3-(4-(4-fluorophenyl)piperazin-1-yl)cyclopent-1-en-1-yl)-7′,8′-dihydro-3′H-spiro[cyclopropane-1,6′-quinazolin]-4′(5′H)-one]",1 to 500
11,"O=c1[nH]c(C2=C[C@H](N3CCN(c4cc(F)cc(Cl)c4)CC3)CC2)nc2c1CC1(CC2)CC1 [Compound 115, (R)-2′-(3-(4-(3-chloro-5-fluorophenyl)piperazin-1-yl)cyclopent-1-en-1-yl)-7′,8′-dihydro-3′H-spiro[cyclopropane-1,6′-quinazolin]-4′(5′H)-one]",501 to 5000
12,"Cc1ccnc(N2CCN([C@H]3C=C(c4nc5c(c(=O)[nH]4)CC4(CC5)CC4)CC3)CC2)c1 [Compound 125, (R)-2′-(3-(4-(4-methylpyridin-2-yl)piperazin-1-yl)cyclopent-1-en-1-yl)-7′,8′-dihydro-3′H-spiro[cyclopropane-1,6′-quinazolin]-4′(5′H)-one]",1 to 500
13,"O=c1[nH]c(C2=C[C@H](N3CCN(c4ccc(-c5ccccc5)cc4)CC3)CC2)nc2c1CC1(CC2)CC1 [Compound 158, (R)-2′-(3-(4-([1,1′-biphenyl]-4-yl)piperazin-1-yl)cyclopent-1-en-1-yl)-7′,8′-dihydro-3′H-spiro[cyclopropane-1,6′-quinazolin]-4′(5′H)-one]",501 to 5000

# Next, values leading:
row,IC50 [nM],SMILES
1,1 to 500,"O=c1[nH]c(C2=C[C@H](N3CCN(c4ccc(F)cc4F)CC3)CC2)nc2c1CC1(CC2)CC1 [Compound 61, (R)-2′-(3-(4-(2,4-difluorophenyl)piperazin-1-yl)cyclopent-1-en-1-yl)-7′,8′-dihydro-3′H-spiro[cyclopropane-1,6′-quinazolin]-4′(5′H)-one]"
2,1 to 500,"Cc1ccc(N2CCN([C@H]3C=C(c4nc5c(c(=O)[nH]4)CC4(CC5)CC4)CC3)CC2)c(F)c1 [Compound 88, (R)-2′-(3-(4-(2-fluoro-4-methylphenyl)piperazin-1-yl)cyclopent-1-en-1-yl)-7′,8′-dihydro-3′H-spiro[cyclopropane-1,6′-quinazolin]-4′(5′H)-one]"
3,1 to 500,"Cc1ccc(N2CCN([C@H]3C=C(c4nc5c(c(=O)[nH]4)CC4(CC5)CC4)CC3)CC2)cc1 [Compound 73, (R)-2′-(3-(4-(p-tolyl)piperazin-1-yl)cyclopent-1-en-1-yl)-7′,8′-dihydro-3′H-spiro[cyclopropane-1,6′-quinazolin]-4′(5′H)-one]"
4,1 to 500,"O=c1[nH]c(C2=C[C@H](N3CC=C(c4ccc(F)cc4)CC3)CC2)nc2c1CC1(CC2)CC1 [Compound 52, (R)-2′-(3-(4-(4-fluorophenyl)-5,6-dihydropyridin-1 (2H)-yl)cyclopent-1-en-1-yl)-7′,8′-dihydro-3′H-spiro[cyclopropane-1,6′-quinazolin]-4′(5′H)-one]"
5,1 to 500,"O=c1[nH]c(CCCN2CCN(c3ccc(Cl)cc3)CC2)nc2c1CCCC21CC1 [Compound 2, 2′-(3-(4-(4-chlorophenyl)piperazin-1-yl)propyl)-6′,7′-dihydro-3′H-spiro[cyclopropane-1,8′-quinazolin]-4′(5′H)-one]"
6,1 to 500,"Cc1cccc(N2CCN([C@H]3C=C(c4nc5c(c(=O)[nH]4)CC4(CC5)CC4)CC3)CC2)n1 [Compound 145, (R)-2′-(3-(4-(6-methylpyridin-2-yl)piperazin-1-yl)cyclopent-1-en-1-yl)-7′,8′-dihydro-3′H-spiro[cyclopropane-1,6′-quinazolin]-4′(5′H)-one]"
7,1 to 500,"Cc1cc(Cl)ccc1N1CCN([C@H]2C=C(c3nc4c(c(=O)[nH]3)CC3(CC4)CC3)CC2)CC1 [Compound 96, (R)-2′-(3-(4-(4-chloro-2-methylphenyl)piperazin-1-yl)cyclopent-1-en-1-yl)-7′,8′-dihydro-3′H-spiro[cyclopropane-1,6′-quinazolin]-4′(5′H)-one]"
8,1 to 500,"O=c1[nH]c(C2=C[C@H](N3CCN(c4ccc(Cl)cc4)CC3)CC2)nc2c1CC1(CC2)CC1 [Compound 37, (R)-2′-(3-(4-(4-chlorophenyl)piperazin-1-yl)cyclopent-1-en-1-yl)-7′,8′-dihydro-3′H-spiro[cyclopropane-1,6′-quinazolin]-4′(5′H)-one]"
9,1 to 500,"O=c1[nH]c([C@H]2CC[C@H](N3CCN(c4ccc(F)cc4)CC3)C2)nc2c1CC1(CC2)CC1 [Compound 149, 2′-((1S,3S)-3-(4-(4-fluorophenyl)piperazin-1-yl)cyclopentyl)-7′,8′-dihydro-3′H-spiro[cyclopropane-1,6′-quinazolin]-4′(5′H)-one]"
10,1 to 500,"O=c1[nH]c(C2=C[C@H](N3CCN(c4ncc(Cl)cc4Cl)CC3)CC2)nc2c1CC1(CC2)CC1 [Compound 107, (R)-2′-(3-(4-(3,5-dichloropyridin-2-yl)piperazin-1-yl)cyclopent-1-en-1-yl)-7′,8′-dihydro-3′H-spiro[cyclopropane-1,6′-quinazolin]-4′(5′H)-one]"
11,1 to 500,"CNC(=O)c1cnc(N2CCN([C@H]3C=C(c4nc5c(c(=O)[nH]4)CC4(CC5)CC4)CC3)CC2)c(Cl)c1 [Compound 103, (R)-5-chloro-N-methyl-6-(4-(3-(4′-oxo-4′,5′,7′,8′-tetrahydro-3′H-spiro[cyclopropane-1,6′-quinazolin]-2′-yl)cyclopent-2-en-1-yl)piperazin-1-yl)nicotinamide]"
12,1 to 500,"O=c1[nH]c(C2=CC(N3CCN(c4ccc(Br)cc4)CC3)CC2)nc2c1CC1(CC2)CC1 (centres unmarked) [Compound 50, 2′-(3-(4-(4-bromophenyl)piperazin-1-yl)cyclopent-1-en-1-yl)-7′,8′-dihydro-3′H-spiro[cyclopropane-1,6′-quinazolin]-4′(5′H)-one]"
13,1 to 500,"O=c1[nH]c([C@H]2CC[C@H](N3CCN(c4cccc(F)c4)CC3)C2)nc2c1CC1(CC2)CC1 [Compound 154, 2′-((1S,3S)-3-(4-(3-fluorophenyl)piperazin-1-yl)cyclopentyl)-7′,8′-dihydro-3′H-spiro[cyclopropane-1,6′-quinazolin]-4′(5′H)-one]"
